In brackets after ≈: the same amount, converted by molar mass.

Data set [1] in a line: High throughput equilibrium solubility (miniaturized shake flask). Type of data set: physicochemical. Particulars: phosphate buffer, aqueous buffer, thermodynamic from solid; pH 6.8 phosphate media, shaken 16 hours. How it is done: High Throughput Equilibriu m Solubility:
The following procedure was adapted from the literature.15 Equilibrium solubility was determined using a miniaturized shake flask approach as described in Zhou et al. Aliquots of 10 mM DMSO compound solution were dispensed in triplicate (2.5 µL/sample) in 96-well polypropylene plates using a Labcyte Echo 525 acoustic dispenser. The DMSO was removed using a GeneVac HT4X evaporator for 15 minutes, 35 °C and full vacuum. Media (pH 6.8 Di-Sodium Hydrogen Phosphate/Potassium Hydrogen Phosphate) was added to each well to achieve a target concentration of 1 mM. The plate was sealed and shaken for 16 hours, then centrifuged at 1000g for phase separation. An aliquot of supernatant was transferred to a new plate, centrifuged a second time at 100g, and then the final supernatant was further diluted for subsequent analysis. Quantification of solubility was performed using a Sound Analytics LS1 and Sciex 6500+ MS/MS and an 8-point calibration curve. […]

Data set [2] can be described thus: Microsomal clearance (rat liver microsomal intrinsic clearance). The note with it: rat liver microsomes, 37 °C, NADPH, 0-30 minutes. Type of data set: in vitro ADME. An excerpt:
The metabolic and physicochemical properties of the [2]-ladderanes compared to aryl/cyclohexyl matched pairs were also studied (compare 35 with 36/37 and 38 with 39/40) (Fig. 5). These structures were chosen because they bear functional groups that are common in drug discovery, yet unlikely to pose any inherent risks. In addition, solubility, permeability, rat liver microsomal intrinsic clearance, and LogP were selected to be evaluated as these are common parameters modulated in drug discovery programs to improve the pharmacokinetic/pharmacodynamic and safety profiles of potential drug candidates.
The following procedure was adapted from the literature. 14 The experiment was performed in 96-well plate format with shaking incubation at 37 °C and 750 rpm. The compounds in 10 mM DMSO were diluted 1:1000 in 100 mM potassium phosphate (Kpi) buffer to 10 µM. 30 µL of the compound solution was added to 120 µL of pretreated microsomal protein for 150 µL enzyme-substrate mixture. Reactions were initiated by addition of 150 µL of cofactor solution (2 mM NADPH, 4 mM MgCl2 in 100 mM KPi). At specific reaction time points (0, 5, 15 and 30 minutes), reaction aliquots (25 µL) were removed and terminated by addition to acetonitrile (150 µL) containing mass spectrometry internal standard (0.4 µM glyburide). The samples were then centrifuged at 500g, and the supernatants analyzed by LC-MS/MS for quantitation of remaining target compound. The percentage of target compound remaining, relative to 0 minutes, was used to estimate in vitro elimination-rate constant (kmic). […]

Data set [3] in a line: Log P (Pion SiriusT3 instrument). Format: physicochemical. How it is done:
(§1) v/v heat deactivated FBS and 1% v/v penicillin-streptomycin (all from Gibco) and grown for 4 days at 37 °C in an atmosphere of 5% CO 2 and 95% relative humidity. Stock solutions of the compounds were prepared in dimethyl sulfoxide (DMSO) (10 mM), and each compound was dosed in triplicate at a final concentration of 10 μM in Hanks’ balanced salt solution (HBSS) at pH 7.4 containing 10 mM 4-(2-hydroxyethyl)-1-piperazineethanesulfonic acid (HEPES) and 0.02% w/v bovine serum albumin (BSA). A solution without the compounds and containing 5% BSA was added to the acceptor. Bafilomycin (100 nM) was added to both compartments. Cells were incubated with the compounds for 2 h at 37 °C, and flux was measured in the apical-to-basolateral direction. Aliquots from the apical, basal and compound dilution plate were sampled and diluted in 90% Methanol 10% Water with 0.1% Formic acid and 0.4 μ M glyburide as an analytical standard to precipitate the protein. The solutions as well as the calibration solutions were centrifuged for 30 min at 3000 rpm for protein precipitation. Drug concentrations in the donor and acceptor compartments were measured by liquid chromatography–mass spectrometry (LC-MS/MS).
The Log P was measured using a Pion SiriusT3 instrument.
To determine the stability of the bicyclo[2.2.0] system, the following experiments were performed:
Aqueous stability at two different pH:
SI-48 was first saponified to avoid the possibility of acid- or base-mediated hydrolysis:
Two solutions of pH = 2 and pH = 10 were prepared with 1M solutions of HCl and NaOH. Then, SI-49 was stirred in two separate solutions (1 mL of each of the aqueous solution and 0.80 mL of MeCN for each).
LC/MS for both durations. […]

Data set [4] is described as follows: Permeability (MDCK), apparent permeability apical-to-basolateral. Format: in vitro ADME. Particulars: dog, with bafilomycin 100 nM in both compartments, MDCK-KO cells, pH 7.4, 2 h, read-out: Papp A-Bx10^-6. How it is done:
The following procedure was adapted from the literature.16 To determine the apparent permeability (Papp), MDCK knockout (MDCK-KO) cells were seeded on Transwell 96 -well plate inserts (Corning, Tewksbury, MA,) at a density of 1.5 × 10^5 cells/cm2 in high glucose DMEM with GlutaMAX containing 10% […]
as §1, with “(LC-MS/MS). […]” for “(LC-MS/MS).”

In data set [1], `O=C(C1CC2CC(CO)C21)N1CCCCC1` (stereo not drawn) [compound 35] registered a solubility at 16 h greater than 200 µM. In data set [2], the “Rat Clint” value turned out to be 15 mL/min. In data set [3], the logP was found to be 0.74. The apparent permeability coefficient (Papp) at 2 h, 10 μM in data set [4] amounted to 29 ×10⁻⁶ cm/s.

In the case of `O=C(c1cccc(CO)c1)N1CCCCC1` [compound 36], the solubility at 16 h in data set [1] was greater than 200 µM. Besides, the “Rat Clint” value in data set [2] is less than 10 mL/min. In data set [3], this molecule registered a logP of 0.41. Besides, the Papp at 2 h, 10 μM in data set [4] was determined as 32 ×10⁻⁶ cm/s.

In data set [1], `O=C(C1CCCC(CO)C1)N1CCCCC1` (stereo not drawn) [compound 37] registered a solubility at 16 h greater than 200 µM. The “Rat Clint” value in data set [2] came to 21 mL/min. In addition, in data set [3], the logP amounted to 1.45. Also, in data set [4], the Papp at 2 h, 10 μM stood at 28 ×10⁻⁶ cm/s.

In data set [1], `O=C(O)[C@@H]1C[C@H]2C[C@H](C(=O)N3CCCCC3)[C@H]21` [compound 38] gave a solubility at 16 h of 180 µM (≈ 42.7 µg/mL). The “Rat Clint” value in data set [2] is less than 10 mL/min. In data set [3], this molecule had a logP of 0.98. For the same molecule, the apparent permeability coefficient (Papp) at 2 h, 10 μM in data set [4] was 5 ×10⁻⁶ cm/s.

As to `O=C(O)c1cccc(C(=O)N2CCCCC2)c1` [compound 39], in data set [1], the solubility at 16 h is greater than 200 µM. For the same molecule, in data set [2], the “Rat Clint” value was less than 10 mL/min. Besides, the log partition coefficient (logP) in data set [3] was found to be 1.15. In addition, in data set [4], the apparent permeability coefficient (Papp) at 2 h, 10 μM came out at 4 ×10⁻⁶ cm/s.

Molecule `O=C(O)C1CCCC(C(=O)N2CCCCC2)C1` (stereo not drawn) [compound 40] displayed a solubility at 16 h in data set [1] of 200 µM (≈ 47.9 µg/mL). Further, the “Rat Clint” value in data set [2] is less than 10 mL/min. The molecule further showed a logP in data set [3] of 0.95. Also, the Papp at 2 h, 10 μM in data set [4] worked out at 4 ×10⁻⁶ cm/s.

The values are drawn from PMC9561113, “[2]-Ladderanes as isosteres for meta-substituted aromatic rings and rigidified cyclohexanes” (Nature Communications, 2022).
